This assay concerns HBV. Nature of the assay: Anti-HBV assay: HBV DNA in supernatants of HBV-producing cells (HepG2 2.2.15, P5A cell line), immunoaffinity capture, PCR and hybrid-capture detection. Format: cell-based, Hepatitis B virus. The note with it: table headed Anti-HCMV Activity. The protocol: Anti-HBV activity of compounds of formula (I) and (I-1) was determined with a high-capacity assay for assessing efficacy. Supernatants from growing HBV-producing cells (HepG2 2.2.15, P5A cell line) in 96-well plates are applied to microtiter plate wells which have been coated with a specific monoclonal antibody to HBV surface antigen (HBsAg). Virus particles present in the supernatants bind to the antibody and remain immobilized while other debris is removed by washing. These virus particles are then denatured to release HBV DNA strands which are subsequently amplified by the polymerase chain reaction and detected with a colorimetric hybrid-capture assay. Quantitation is achieved through fitting of a standard curve to dilutions of a cell supernatant with known HBV DNA content. By comparing HBV DNA levels of untreated control cell supernatants with supernatants containing a compound of formula (I) or (I-1), a measure of anti-HBV effectiveness is obtained.
HBV producer cells, 2500 cells/well, were seeded in 96-well culture dishes in RPMI/10% fetal bovine serum/2 mM glutamine (RPMI/10/2:). […] Twenty-five uL HBV standard media dilutions in RPMI/10/2 were added to 2 rows of wells to serve as an internal standard curve for quantitation, and the plates were sealed and incubated at 4° C. overnight. […]
Polymerase chain reaction (Saiki, R. K. et al., Science, 239 (4839) 487-91 (1988)) was carried out on 5 uL samples, using a Perkin Elmer PCR kit. […] Primers were chosen from conserved regions in the HBV genome, as determined by alignment of several sequences. […]
PCR products were detected with horse radish peroxidase-labeled oligonucleotide probes (Synthecell Corp., Rockville, Md. 20850), which hybridize to biotinylated strands of denatured PCR products directly in streptavidin-coated microtiter plate wells, using essentially the method of Holodiniy, M. et al., Bio Techniques, 12 (1)37-39 (1992). […] Quantities of HBV DNA present in the original samples were calculated by comparison with standards. […]

The mark [1] stands for this setting: Hepatitis B virus, HepG2 2.2.15, read-out: Anti-HBV activity, approximate IC50 (50 percent decrease in HBV DNA), HepG2 2.2.15, P5A cell line.

Like-named read-outs stand apart in the source and are kept apart here.

One may read the IC50 as the midpoint of a concentration-inhibition curve. Turning to `OC[C@@H]1C[C@@H](O)[C@H](n2c(Br)nc3cc(Cl)c(Cl)cc32)C1` (relative stereo) [Ex. 13, (±)-(1R*, 2R*, 4S*)-2-(2-Bromo-5,6-dichloro-1H-benzimidazol-1-yl)-4-(hydroxymethyl)cyclo-pentanol], the IC50 under setting [1] was 5000 nM.
With `OC[C@@H]1C[C@H](n2c(Br)nc3cc(Cl)c(Cl)cc32)[C@@H](O)[C@H]1O` [Ex. 69, (1R, 2S, 3S, 5S)-5-(2-Bromo-5,6-dichloro-1H-benzimidazol-1-yl)-3-(hydroxymethyl)-1,2-cyclopentanediol], the IC50 under setting [1] amounted to 720 nM and the IC50 (read-out: Anti-HBV activity, approximate IC50 (50 percent decrease in HBV DNA), HepG2 2.2.15, P5A cell line) was 1300 nM.
